Source: patent publication US12673936B2, “Isoindolinone compounds, and uses thereof” (HANGZHOU GLUBIO PHARMACEUTICAL CO., LTD., priority 2021, dated 2026)

Legend:
HiBiT tagged GSPT1 = HiBiT tagged GSPT1 (Homo sapiens, UniProt P15170+Q96SW2); experiment: GSPT1 degradation assay (HiBiT assay); type: cell-based; conditions: 20 hours, maximum GSPT1 degradation; for Dmax: HT-1080, HT-1080 cells; for HiBiT GSPT1: Dmax: HT-1080 cells
Description: (§1) CK1α and GSPT1 Degradation Assay (HiBiT Assay) The following is an example of an assay that can be used to determine the dose-dependent CK1α and GSPT1 degradation activities of test compounds in a human cell line such as HT-1080 ([…]). HT-1080 cells stably overexpressing wild-type CRBN, GSPT1A(1-138)/G575N mutant and HiBiT tagged CK1α or GSPT1 were seeded into 384-well plates (Cat #3764, Corning) pre-spotted with DMSO or test compounds. Increasing concentrations of test compounds (ranging from 3.162×10^-4 μM to 10 μM at a 3.16-fold increment) or DMSO were dispensed into an empty 384-well plate using an Echo Acoustic Liquid Handler (Beckman Coulter). About 10,000 cells in complete DMEM cell culture media were seeded per well. […] Luminescence was then measured with an EnVision plate reader (PerkinElmer) or a PHERAstar plate reader (BMG Labtech). All CK1α or GSPT1 degradation curves were processed using Collaborative Drug Discovery Vault softwares (Burlingame, CA., www.collaborativedrug.com). CK1α or GSPT1 levels in compound-treated wells were normalized to that of DMSO control and expressed as Percent of Control (PoC, y). […]

HiBiT tagged CK1α = HiBiT tagged CK1α (Homo sapiens, UniProt P48729+Q96SW2); experiment: CK1α degradation assay (HiBiT assay); type: cell-based; conditions: 20 hours; for Dmax: HT-1080, HT-1080 cells; for Dmax / HiBiT CK1α: Dmax: maximum CK1α degradation; for DC50 / HiBiT CK1α: Dmax: HT-1080 cells; for DC50: concentration at 50% CK1α degradation
Chain of HiBiT tagged CK1α (P48729 whole entry): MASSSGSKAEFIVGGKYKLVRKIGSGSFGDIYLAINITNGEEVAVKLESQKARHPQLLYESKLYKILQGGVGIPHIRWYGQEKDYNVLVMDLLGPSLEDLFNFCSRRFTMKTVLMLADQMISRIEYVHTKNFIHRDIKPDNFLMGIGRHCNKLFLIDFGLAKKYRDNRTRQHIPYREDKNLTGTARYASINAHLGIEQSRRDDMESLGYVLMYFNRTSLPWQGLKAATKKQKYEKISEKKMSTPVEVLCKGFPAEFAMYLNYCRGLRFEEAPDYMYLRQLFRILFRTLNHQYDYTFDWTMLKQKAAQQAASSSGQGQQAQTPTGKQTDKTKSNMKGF
Chain of HiBiT tagged CK1α (Q96SW2 whole entry): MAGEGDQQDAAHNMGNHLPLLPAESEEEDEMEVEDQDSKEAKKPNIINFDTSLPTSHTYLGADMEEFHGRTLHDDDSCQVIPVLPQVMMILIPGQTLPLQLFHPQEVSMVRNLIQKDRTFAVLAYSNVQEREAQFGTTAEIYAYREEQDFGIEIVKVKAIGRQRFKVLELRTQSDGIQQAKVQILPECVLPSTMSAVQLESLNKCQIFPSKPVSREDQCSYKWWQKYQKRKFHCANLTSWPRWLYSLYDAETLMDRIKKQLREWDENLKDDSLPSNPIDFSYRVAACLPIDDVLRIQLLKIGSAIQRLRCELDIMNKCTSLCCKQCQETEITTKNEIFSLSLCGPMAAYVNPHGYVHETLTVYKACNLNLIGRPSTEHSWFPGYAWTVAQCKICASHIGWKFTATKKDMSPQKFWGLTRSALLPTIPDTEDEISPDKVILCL
Chain of HiBiT tagged CK1α (Q16531 whole entry partner): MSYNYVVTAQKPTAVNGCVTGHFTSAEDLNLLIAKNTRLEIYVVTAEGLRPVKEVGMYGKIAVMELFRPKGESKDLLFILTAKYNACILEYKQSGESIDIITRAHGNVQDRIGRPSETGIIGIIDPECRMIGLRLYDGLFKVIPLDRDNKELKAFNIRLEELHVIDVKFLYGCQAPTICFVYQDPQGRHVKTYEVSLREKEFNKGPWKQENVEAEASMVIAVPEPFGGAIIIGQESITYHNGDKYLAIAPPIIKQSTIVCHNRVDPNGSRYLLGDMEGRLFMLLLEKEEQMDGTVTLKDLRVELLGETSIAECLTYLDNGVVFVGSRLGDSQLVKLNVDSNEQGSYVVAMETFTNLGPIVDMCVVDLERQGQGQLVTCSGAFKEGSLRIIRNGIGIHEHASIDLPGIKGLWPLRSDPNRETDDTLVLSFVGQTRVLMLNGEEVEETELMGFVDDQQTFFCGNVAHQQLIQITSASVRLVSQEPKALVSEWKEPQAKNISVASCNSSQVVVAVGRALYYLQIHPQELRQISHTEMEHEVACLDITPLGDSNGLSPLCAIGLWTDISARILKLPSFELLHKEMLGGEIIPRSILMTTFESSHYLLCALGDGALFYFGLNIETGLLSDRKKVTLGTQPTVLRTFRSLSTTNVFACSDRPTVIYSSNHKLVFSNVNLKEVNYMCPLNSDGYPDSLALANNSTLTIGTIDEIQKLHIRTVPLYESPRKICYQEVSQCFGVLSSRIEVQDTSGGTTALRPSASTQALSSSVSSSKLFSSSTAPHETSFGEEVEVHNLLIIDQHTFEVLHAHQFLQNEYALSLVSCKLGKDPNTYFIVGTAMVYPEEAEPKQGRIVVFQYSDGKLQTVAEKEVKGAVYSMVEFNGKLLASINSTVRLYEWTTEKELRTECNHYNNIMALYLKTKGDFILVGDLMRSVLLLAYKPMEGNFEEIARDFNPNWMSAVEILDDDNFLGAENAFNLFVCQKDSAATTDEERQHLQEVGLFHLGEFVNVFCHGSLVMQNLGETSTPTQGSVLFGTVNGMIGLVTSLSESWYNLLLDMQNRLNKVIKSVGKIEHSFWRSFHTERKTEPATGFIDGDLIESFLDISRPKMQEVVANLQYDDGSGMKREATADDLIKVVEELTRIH
Description: as §1

Chain of HiBiT tagged GSPT1 (P15170 whole entry): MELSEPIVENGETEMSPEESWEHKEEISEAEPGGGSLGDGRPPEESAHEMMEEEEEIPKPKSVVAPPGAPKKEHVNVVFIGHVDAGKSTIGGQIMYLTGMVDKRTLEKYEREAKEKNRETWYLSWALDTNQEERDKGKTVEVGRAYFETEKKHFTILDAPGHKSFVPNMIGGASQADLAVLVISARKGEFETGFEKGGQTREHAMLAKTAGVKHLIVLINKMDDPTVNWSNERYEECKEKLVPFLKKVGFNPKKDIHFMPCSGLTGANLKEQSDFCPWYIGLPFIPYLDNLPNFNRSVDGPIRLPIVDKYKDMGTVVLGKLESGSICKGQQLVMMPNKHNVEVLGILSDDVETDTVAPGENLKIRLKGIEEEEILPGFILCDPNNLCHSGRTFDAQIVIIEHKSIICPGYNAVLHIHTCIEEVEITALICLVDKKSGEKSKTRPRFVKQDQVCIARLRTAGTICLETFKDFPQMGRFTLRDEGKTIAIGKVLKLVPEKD
Chain of HiBiT tagged GSPT1 (Q96SW2 whole entry): as the sequence (Q96SW2 whole entry) above
Chain of HiBiT tagged GSPT1 (Q16531 whole entry partner): as the sequence (Q16531 whole entry partner) above

O=C1CCC(N2Cc3cc(C(=O)N[C@H](c4ccc(F)cc4)C4CC4)ccc3C2=O)C(=O)N1 (stereo in doubt) [Compound 10, N-((*S)-cyclopropyl(4-fluorophenyl)methyl)-2-(2,6-dioxopiperidin-3-yl)-1-oxoisoindoline-5-carboxamide]
Dmax (HiBiT tagged GSPT1): 36%
Dmax (HiBiT tagged CK1α): 60.8%
DC50 (HiBiT tagged CK1α): 706 nM

O=C1CCC(N2Cc3cc(C(=O)NC(c4ccc(Cl)cc4F)C4CC4)ccc3C2=O)C(=O)N1 (stereo not drawn) [Compound 14, N-((4-chloro-2-fluorophenyl)(cyclopropyl)methyl)-2-(2,6-dioxopiperidin-3-yl)-1-xoisoindoline-5-carboxamide]
Dmax (HiBiT tagged GSPT1): 45.5%
Dmax (HiBiT tagged CK1α): 67.1%
DC50 (HiBiT tagged CK1α): 284 nM

O=C1CC[C@@H](N2Cc3cc(C(=O)NC(c4ccc(F)c(F)c4)C4CCC4)ccc3C2=O)C(=O)N1 (single isomer, unassigned) [Compound 49, N-((*S)-cyclobutyl(3,4-difluorophenyl)methyl)-2-((R)-2,6-dioxopiperidin-3-yl)-1-oxoisoindoline-5-carboxamide]
Dmax (HiBiT tagged GSPT1): 28.6%
Dmax (HiBiT tagged CK1α): 68.6%
DC50 (HiBiT tagged CK1α): 112 nM

O=C1CCC(N2Cc3cc(C(=O)N[C@@H](c4cccc(F)c4)C4CC4)ccc3C2=O)C(=O)N1 (stereo in doubt) [Compound 25, N-((*R)-cyclopropyl(3-fluorophenyl)methyl)-2-(2,6-dioxopiperidin-3-yl)-1-oxoisoindoline-5-carboxamide]
Dmax (HiBiT tagged GSPT1): 48.4%
Dmax (HiBiT tagged CK1α): 54.5%
DC50 (HiBiT tagged CK1α): 1580 nM

O=C1CC[C@@H](N2Cc3cc(C(=O)N[C@H](c4ccc(Cl)cc4F)C4CCC4)ccc3C2=O)C(=O)N1 (racemic) [Compound 56, N-((*S)-(4-chloro-2-fluorophenyl)(cyclobutyl)methyl)-2-((*R)-2,6-dioxopiperidin-3-yl)-1-oxoisoindoline-5-carboxamide]
HiBiT GSPT1: Dmax (HiBiT tagged GSPT1): 15.3%
DC50 (HiBiT tagged CK1α): 93.7 nM
HiBiT CK1α: Dmax (HiBiT tagged CK1α): 63.6%

O=C1CCC(N2Cc3cc(C(=O)NC(c4ccc(F)cc4F)C4CC4)ccc3C2=O)C(=O)N1 (stereo not drawn) [Compound 1, N-(cyclopropyl(2,4-difluorophenyl)methyl)-2-(2,6-dioxopiperidin-3-yl)-1-oxoisoindoline-5-carboxamide]
Dmax (HiBiT tagged GSPT1): 37%
Dmax (HiBiT tagged CK1α): 66.2%
DC50 (HiBiT tagged CK1α): 221 nM

O=C1CCC(N2Cc3cc(C(=O)NC(c4ccc(F)cc4Cl)C4CCC4)ccc3C2=O)C(=O)N1 (stereo not drawn) [Compound 19, N-((2-chloro-4-fluorophenyl)(cyclobutyl)methyl)-2-(2,6-dioxopiperidin-3-yl)-1-oxoisoindoline-5-carboxamide]
Dmax (HiBiT tagged GSPT1): 43%
Dmax (HiBiT tagged CK1α): 69.6%
DC50 (HiBiT tagged CK1α): 65.9 nM

O=C1CCC(N2Cc3cc(C(=O)N[C@H](c4ncc(Cl)cc4F)C4CCC4)ccc3C2=O)C(=O)N1 (stereo in doubt) [Compound 80, N-((*S)-(5-chloro-3-fluoropyridin-2-yl)(cyclobutyl)methyl)-2-(2,6-dioxopiperidin-3-yl)-1-oxoisoindoline-5-carboxamide]
Dmax (HiBiT tagged GSPT1): 14.2%
Dmax (HiBiT tagged CK1α): 61.1%
DC50 (HiBiT tagged CK1α): 652 nM

O=C1CCC(N2Cc3cc(C(=O)N[C@H](c4ncc(F)cc4Cl)C4CC4)ccc3C2=O)C(=O)N1 (stereo in doubt) [Compound 71, N-((*S)-(3-chloro-5-fluoropyridin-2-yl)(cyclopropyl)methyl)-2-(2,6-dioxopiperidin-3-yl)-1-oxoisoindoline-5-carboxamide]
Dmax (HiBiT tagged GSPT1): 19.1%
Dmax (HiBiT tagged CK1α): 61.7%
DC50 (HiBiT tagged CK1α): 455 nM

COc1cccc([C@@H](NC(=O)c2ccc3c(c2)CN(C2CCC(=O)NC2=O)C3=O)C2CC2)c1 (stereo in doubt) [Compound 32, N-((*S)-cyclopropyl(3-methoxyphenyl)methyl)-2-(2,6-dioxopiperidin-3-yl)-1-oxoisoindoline-5-carboxamide]
Dmax (HiBiT tagged GSPT1): 36.3%
Dmax (HiBiT tagged CK1α): 59.3%
DC50 (HiBiT tagged CK1α): 198 nM

O=C1CCC(N2Cc3cc(C(=O)N[C@H](c4ncccc4F)C4(F)CCC4)ccc3C2=O)C(=O)N1 (stereo in doubt) [Compound 88, 2-(2,6-dioxopiperidin-3-yl)-N-((*R)-(1-fluorocyclobutyl)(3-fluoropyridin-2-yl)methyl)-1-oxoisoindoline-5-carboxamide]
Dmax (HiBiT tagged GSPT1): 14.9%
Dmax (HiBiT tagged CK1α): 55.4%
DC50 (HiBiT tagged CK1α): 394 nM

O=C1CCC(N2Cc3cc(C(=O)NC(c4ccc(F)cc4Cl)C4CCC4)ccc3C2=O)C(=O)N1 (single isomer, unassigned) [Compound 53, N-((*S)-(2-chloro-4-fluorophenyl)(cyclobutyl)methyl)-2-((*S)-2,6-dioxopiperidin-3-yl)-1-oxoisoindoline-5-carboxamide]
Dmax (HiBiT tagged GSPT1): 24.2%
Dmax (HiBiT tagged CK1α): 70.2%
DC50 (HiBiT tagged CK1α): 118 nM

O=C1CCC(N2Cc3cc(C(=O)N[C@@H](c4cccc(Cl)c4)C4CCC4)ccc3C2=O)C(=O)N1 (stereo in doubt) [Compound 68, N-((3-chlorophenyl)(cyclobutyl)methyl)-2-(2,6-dioxopiperidin-3-yl)-1-oxoisoindoline-5-carboxamide]
Dmax (HiBiT tagged GSPT1): 48.3%
Dmax (HiBiT tagged CK1α): 55.4%
DC50 (HiBiT tagged CK1α): 789 nM

O=C1CCC(N2Cc3cc(C(=O)N[C@@H](c4ccc(F)cc4Cl)C4CCC4)ccc3C2=O)C(=O)N1 (stereo in doubt) [Compound 72, N-((*R)-(2-chloro-4-fluorophenyl)(cyclobutyl)methyl)-2-(2,6-dioxopiperidin-3-yl)-1-oxoisoindoline-5-carboxamide]
Dmax (HiBiT tagged GSPT1): 45.2%
Dmax (HiBiT tagged CK1α): 65.5%
DC50 (HiBiT tagged CK1α): 132 nM

O=C1CCC(N2Cc3cc(C(=O)N[C@H](c4ncc(F)cc4Cl)C4CCC4)ccc3C2=O)C(=O)N1 (stereo in doubt) [Compound 81, N-((*S)-(3-chloro-5-fluoropyridin-2-yl)(cyclobutyl)methyl)-2-(2,6-dioxopiperidin-3-yl)-1-oxoisoindoline-5-carboxamide]
Dmax (HiBiT tagged GSPT1): 18.4%
Dmax (HiBiT tagged CK1α): 62.1%
DC50 (HiBiT tagged CK1α): 153 nM

O=C1CCC(N2Cc3cc(C(=O)N[C@@H](c4ccc(F)cc4)C4CCC4)ccc3C2=O)C(=O)N1 (stereo in doubt) [Compound 75, N-((*R)-cyclobutyl(4-fluorophenyl)methyl)-2-(2,6-dioxopiperidin-3-yl)-1-oxoisoindoline-5-carboxamide]
Dmax (HiBiT tagged GSPT1): 24.1%
Dmax (HiBiT tagged CK1α): 50.4%
DC50 (HiBiT tagged CK1α): 3880 nM

O=C1CCC(N2Cc3cc(C(=O)N[C@@H](c4ccc(Cl)cn4)C4CCC4)ccc3C2=O)C(=O)N1 (stereo in doubt) [Compound 77, N—((*R)-(5-chloropyridin-2-yl)(cyclobutyl)methyl)-2-(2,6-dioxopiperidin-3-yl)-1-oxoisoindoline-5-carboxamide]
HiBiT GSPT1: Dmax (HiBiT tagged GSPT1): 23.5%
HiBiT CK1α: Dmax (HiBiT tagged CK1α): 41.1%

O=C1CCC(N2Cc3cc(C(=O)N[C@H](c4ccc(F)cc4)C4CCCC4)ccc3C2=O)C(=O)N1 (mixture of isomers) [Compound 61, N-((*S)-cyclopentyl(4-fluorophenyl)methyl)-2-((R)-2,6-dioxopiperidin-3-yl)-1-oxoisoindoline-5-carboxamide]
Dmax (HiBiT tagged GSPT1): 29.3%
Dmax (HiBiT tagged CK1α): 49.5%

O=C1CCC(N2Cc3cc(C(=O)N[C@@H](c4ccc(F)cc4)C4COC4)ccc3C2=O)C(=O)N1 (stereo in doubt) [Compound 59, 2-(2,6-dioxopiperidin-3-yl)-N-((*R)-(4-fluorophenyl)(oxetan-3-yl)methyl)-1-oxoisoindoline-5-carboxamide]
Dmax (HiBiT tagged GSPT1): 7.93%
Dmax (HiBiT tagged CK1α): 32.2%

Cc1cccc([C@H](NC(=O)c2ccc3c(c2)CN(C2CCC(=O)NC2=O)C3=O)C2CC2)c1 (stereo in doubt) [Compound 29, N-((*R)-cyclopropyl(m-tolyl)methyl)-2-(2,6-dioxopiperidin-3-yl)-1-oxoisoindoline-5-carboxamide]
Dmax (HiBiT tagged GSPT1): 22%
Dmax (HiBiT tagged CK1α): 58.8%
DC50 (HiBiT tagged CK1α): 553 nM

O=C1CCC(N2Cc3cc(C(=O)NC(c4ccc(F)cc4)C4CCCC4)ccc3C2=O)C(=O)N1 (stereo not drawn) [Compound 37, N-(cyclopentyl(4-fluorophenyl)methyl)-2-(2,6-dioxopiperidin-3-yl)-1-oxoisoindoline-5-carboxamide]
Dmax (HiBiT tagged GSPT1): 36.2%
Dmax (HiBiT tagged CK1α): 70.8%
DC50 (HiBiT tagged CK1α): 72.7 nM

O=C1CCC(N2Cc3cc(C(=O)N[C@H](c4ccccc4F)C4CC4)ccc3C2=O)C(=O)N1 (stereo in doubt) [Compound 11, N-((*S)-cyclopropyl(2-fluorophenyl)methyl)-2-(2,6-dioxopiperidin-3-yl)-1-oxoisoindoline-5-carboxamide]
Dmax (HiBiT tagged GSPT1): 23.4%
Dmax (HiBiT tagged CK1α): 64.7%
DC50 (HiBiT tagged CK1α): 308 nM

COc1ccccc1C(NC(=O)c1ccc2c(c1)CN(C1CCC(=O)NC1=O)C2=O)C1CC1 (stereo not drawn) [Compound 15, N-(cyclopropyl(2-methoxyphenyl)methyl)-2-(2,6-dioxopiperidin-3-yl)-1-oxoisoindoline-5-carboxamide]
Dmax (HiBiT tagged GSPT1): 24.5%
Dmax (HiBiT tagged CK1α): 73.2%
DC50 (HiBiT tagged CK1α): 66.6 nM

O=C1CCC(N2Cc3cc(C(=O)N[C@@H](c4ccc(F)cc4Cl)C4CC4)ccc3C2=O)C(=O)N1 (stereo in doubt) [Compound 74, N-((*R)-(2-chloro-4-fluorophenyl)(cyclopropyl)methyl)-2-(2,6-dioxopiperidin-3-yl)-1-oxoisoindoline-5-carboxamide]
Dmax (HiBiT tagged GSPT1): 62.3%
Dmax (HiBiT tagged CK1α): 59.2%
DC50 (HiBiT tagged CK1α): 233 nM
